According to ChEMBL document CHEMBL1158542, “Synthesis and biological evaluation of modified pentapeptides as potent proteinase K inhibitors” (Bioorg Med Chem Lett, 2010):
Calls of active or inactive are those of the source. The calls are words filed in the database; no cut-off is given here.

What was measured:
[1] = Inhibition of proteinase K at 0.75 mM pretreated for 1 hr by RT-PCR analysis
[2] = Inhibition of proteinase K at 0.25 mM by RT-PCR analysis in presence of BSA
[3] = Inhibition of proteinase K at 0.5 mM pretreated for 1 hr by RT-PCR analysis
[4] = system: HeLa; experiment: Inhibition of proteinase K in human HeLa cells assessed as beta-actin RNA level at 0.5 mM by RT-PCR analysis; type: cell-based
[5] = Inhibition of proteinase K at 0.25 to 1 mM pretreated for 1 hr by RT-PCR analysis
[6] = Inhibition of proteinase K at 0.05 mM pretreated for 1 hr by RT-PCR analysis
[7] = Inhibition of proteinase K at 0.10 mM by RT-PCR analysis in presence of BSA
[8] = system: HeLa; experiment: Inhibition of proteinase K in human HeLa cells assessed as beta-actin RNA level at 0.10 mM by RT-PCR analysis; type: cell-based

Compound: COC(=O)CCC(=O)N[C@@H](C)C(=O)N[C@H](C)C(=O)N[C@@H](C)C(=O)N1CCC[C@H]1C(=O)N[C@H](C(=O)CCl)C(C)C
- inhibition [1]: Active
- inhibition [2]: Active
- inhibition [3]: inactive
- inhibition [4]: Active
- inhibition [5]: Active

Compound: COC(=O)CCC(=O)N[C@@H](C)C(=O)N[C@H](C)C(=O)N[C@@H](C)C(=O)N1CCC[C@H]1C(=O)N[C@@H](CC(C)C)C(=O)CCl
- inhibition [6]: Active
- inhibition [7]: Active
- inhibition [8]: Active
